The text below walks through data of patent US5110911A, “Human tumor-associated Thomsen-Friedenreich antigen” (Biomira, Inc., priority 1989, dated 1992).

One experiment relates to 49H.8. The conditions noted are these: inhibitor concentration of 2 mg/ml; cited from earlier work.
The subject of experiment [1] is antigen capture by MAb 49H.8. Put plainly: Inhibition of the antigen capture by synthetic carbohydrate haptens. The format is binding. How it is done:
(§1) Breakable strips of microtitre wells were coated with MAb […].8 or a control antibody (MOPC-104E), 1 μg/well, by overnight incubation at 4° C. The wells were then serially incubated with FBS 5% in PBS at 37° C. for 30 minutes, with antigen solution at 37° C. for two hours, and with radioiodinated PNA (2×10^5 cpm/well) at room temperature for two hours. The wells were washed with PBS containing 0.05% Tween-20 after each of the above steps. Each well was counted for ^125 I activity using a gamma counter.

For experiment [2], the system named is TF Antigen Binding with MAb 49H.8 (Ta3-Ha Conditioned Medium). Put plainly: Inhibition of TF antigen binding with MAb 49H.8 by synthetic carbohydrates in SRIA, Ta3-Ha conditioned medium. Further details: species or system murine. How it is done: as §1
Experiment [3] relates to TF Antigen Binding with MAb 49H.8 (PE89). Put plainly: Inhibition of TF antigen binding with MAb 49H.8 by synthetic carbohydrates in SRIA, PE89. Further details: species or system human. How it is done: as §1
Experiment [4] deals with TF Antigen Binding with MAb 49H.8 (647V Conditioned Medium). Put plainly: Inhibition of TF antigen binding with MAb 49H.8 by synthetic carbohydrates in SRIA, 647V conditioned medium. Also noted: species or system human. The method, then: as §1
For experiment [5], the system named is TF Antigen Binding with MAb 49H.8 (LS174T Conditioned Medium). Put plainly: Inhibition of TF antigen binding with MAb 49H.8 by synthetic carbohydrates in SRIA, LS174T conditioned medium. Also noted: species or system human. How it is done:
as §1

The next experiment deals with carcinoma cell lines. The note with it: all nine cell lines named; cited from earlier work.

In the case of `CC(=O)N[C@@H]1[C@@H](O[C@@H]2O[C@H](CO)[C@H](O)[C@H](O)[C@H]2O)[C@@H](O)[C@@H](CO)O[C@H]1O` [beta anomer], the “inhibition in binding of 49H.8 to neuraminidase-treated erythrolytes” value (“inhibition in binding” for short) in the experiment with 49H.8 is recorded as 29%.

For `O=[N+]([O-])c1ccc(O[C@@H]2O[C@H](CO)[C@H](O)[C@H](O)[C@H]2O)cc1` [p-nitrophenyl-β-D-galactoside], in experiment [1], the “Inhibition of the positive reactivity in the sandwich assay (in words)” value (“Inhibition of the positive reactivity” below) is “inhibited”.

Regarding “p-nitrophenyl-α-D-galactoside [p-nitrophenyl α-D-galactoside]”, the “Inhibition of the positive reactivity” value in experiment [1] is on record as “did not show any inhibition”.

Turning to `OC[C@H]1O[C@@H](Oc2ccccc2)[C@H](O)[C@@H](O)[C@@H]1O` [Phenyl-β-D-glucoside], the “% Inhibition ± SD, Ta3-Ha Conditioned Medium” value is reported as 3.92% in experiment [2] (inhibitor 5 mM) and 1.38% in experiment [2] (inhibitor 10 mM). Moreover, the figures for the “% Inhibition ± SD, PE89” value in experiment [3] (inhibitor 5 mM) and in experiment [3] (inhibitor 10 mM) were -6.41% and -4.61%, respectively. Besides, the “Inhibition of the positive reactivity” value in experiment [1] is on record as “did not show any inhibition”. The “% Inhibition ± SD, 647V Conditioned Medium” value in experiment [4] (inhibitor 5 mM) is recorded as -3.00%; in experiment [4] (inhibitor 10 mM) it was 0.58%. Also, the “% Inhibition ± SD, LS174T Conditioned Medium” value in experiment [5] (inhibitor 5 mM) is given as -7.15%; in experiment [5] (inhibitor 10 mM), -1.67%.

Turning to `OC[C@H]1O[C@@H](Oc2ccccc2)[C@H](O)[C@@H](O)[C@H]1O` [Phenyl-β-D-galactoside], the “% Inhibition ± SD, Ta3-Ha Conditioned Medium” value in experiment [2] (inhibitor 5 mM) stood at 69.40%; in experiment [2] (inhibitor 10 mM), 96.25%. For the same molecule, the “% Inhibition ± SD, PE89” value is 45.48% in experiment [3] (inhibitor 5 mM) and 69.04% in experiment [3] (inhibitor 10 mM). For the same molecule, the “Inhibition of the positive reactivity” value in experiment [1] is “inhibited”. Further, the “% Inhibition ± SD, 647V Conditioned Medium” value in experiment [4] (inhibitor 5 mM) amounted to 66.60%; in experiment [4] (inhibitor 10 mM) it was 90.12%. The “% Inhibition ± SD, LS174T Conditioned Medium” value in experiment [5] (inhibitor 5 mM) is on record as 86.95%; in experiment [5] (inhibitor 10 mM), 95.91%.

Take `OC[C@H]1OC(O)[C@H](O)[C@@H](O)[C@H]1O` (stereo partly drawn) [D-Gal]: the “inhibition in binding” value in the experiment with 49H.8 is 5%.

Regarding `CC(=O)N[C@@H]1[C@@H](O[C@@H]2O[C@H](CO)[C@H](O)[C@H](O)[C@H]2O)[C@@H](O)[C@@H](CO)O[C@@H]1O` [TF disaccharide, D-β-Gal (1-3)-α-GalNAc], the “inhibition in binding” value in the experiment with 49H.8 is 33%.

B1: PNA: lectin extracted from the peanut (Arachis hypogaea) which recognizes the terminal disaccharide of the TF-antigen (protein, UniProt P02872 24-273, looked up)
Galactose-binding lectin: AETVSFNFNSFSEGNPAINFQGDVTVLSNGNIQLTNLNKVNSVGRVLYAMPVRIWSSATGNVASFLTSFSFEMKDIKDYDPADGIIFFIAPEDTQIPAGSIGGGTLGVSDTKGAGHFVGVEFDTYSNSEYNDPPTDHVGIDVNSVDSVKTVPWNSVSGAVVKVTVIYDSSTKTLSVAVTNDNGDITTIAQVVDLKAKLPERVKFGFSASGSLGGRQIHLIRSWSFTSTLITTTRRSIDNNEKKIMNMASA
Turning to B1, the “Binding to carcinoma cell lines” value in the experiment on carcinoma cell lines is recorded as “marked”.
